The values below are quoted from earlier work in patent US5502037A, “Pro-cytotoxic drug conjugates for anticancer therapy” (priority 1993, dated 1996).

The structures appear in SMILES notation. Like-named read-outs stand apart in the source and are kept apart here.

The conditions of series [1]: NBP test, relative to NNM; taken from Brock, 1976.
Series [2] deals with mouse Yoshida ascites sarcoma cells. Particulars: for In vitro activities: Cytotoxicity: cu = cytostatic units, Yoshida ascites sarcoma cells, Brock, 1976.
The next series deals with tumor cells. Particulars: for activity as the result of in vivo metabolism: once activated / metabolized.

As for `C=CC=O` [Acrolein, acrolein], the “In vitro activities: Alkylating” value in series [1] was 1.9%. Also, in the series on Yoshida ascites sarcoma (lethal dose, rat, Brock, 1976), the “In vivo activities: LD50” value was 7.3 mg/kg. Besides, in the series on Yoshida ascites sarcoma (rat, in vivo), the “D50 Index (LD50/CD50)” value is recorded as ~ 3 and the “In vivo activities: CD50” value is more than 2.15 mg/kg. In series [2], the “In vitro activities: Cytotoxicity” value is on record as 0.4 CU/μmol.

Turning to `O=P1(N(CCCl)CCCl)NCCCO1` (stereo not drawn) [CP, cyclophosphamide], in series [1], the “In vitro activities: Alkylating” value is given as 1.3%. The “activity as the result of in vivo metabolism” value in the series on tumor cells is on record as “highly cancerotoxic”. For the same molecule, the “biologic activity in vitro and in vivo before metabolism” value with tumor cells (initially, in vitro and in vivo) is reported as “only slight biologic activity”. The “activity in vivo against the rat Yoshida ascites sarcoma (in words)” value in the series with Yoshida ascites sarcoma (comment on Table II) is on record as “highly active therapeutic agent”. In addition, the “In vivo activities: CD50” value with Yoshida ascites sarcoma (curative dose, Yoshida ascites sarcoma in rat, Brock, 1976) is recorded as 1.25 mg/kg. In addition, in the series on Yoshida ascites sarcoma (rat, in vivo), the “D50 Index (LD50/CD50)” value is recorded as 175 and the “In vivo activities: LD50” value is recorded as 220 mg/kg. The “activity in the in vitro Yoshida cell cytotoxicity test (in words)” value in series [2] (comment on Table II) is “virtually inactive”. Further, the “In vitro activities: Cytotoxicity” value in series [2] is less than 0.03 CU/μmol.

Take `O=P1(NCCCl)OCCCN1CCCl` (stereo not drawn) [isophosphamide]: in the series on tumor cells, the “activity as the result of in vivo metabolism” value is given as “highly cytotoxic in vivo to tumor cells once activated”.
